# In ChEMBL document CHEMBL3352801, “Synthesis and lipid-lowering evaluation of 3-methyl-1H-purine-2,6-dione derivatives as potent and orally available anti-obesity agents” (Eur J Med Chem, 2014):
# Active and inactive are the calls of the source. The calls are words filed in the database; no cut-off is given here.
# Experiments:
# Mus musculus [1] = assay: Increase in glucose tolerance in diet-induced obese C57Bl/6 mouse at 20 mg/kg/day, po for 4 weeks by oral glucose tolerance test; assay type: functional, organism-based
# Mus musculus [2] = assay: Antiobesity activity in diet-induced obese C57Bl/6 mouse assessed as increase in HDL level compound dosed po for 4 weeks with high-fat diet; assay type: functional, organism-based
# Mus musculus [3] = assay: Antiobesity activity in diet-induced obese C57Bl/6 mouse assessed as reduction in HOMA-IR value compound dosed po for 4 weeks with high-fat diet; assay type: functional, organism-based
# Mus musculus [4] = assay: Decrease in insulin resistance in po dosed diet-induced obese C57Bl/6 mouse assessed as induction of insulin secretion by insulin tolerance test; assay type: functional, organism-based
# Mus musculus [5] = assay: Increase in glucose tolerance in diet-induced obese C57Bl/6 mouse at 50 mg/kg/day, po for 4 weeks by oral glucose tolerance test; assay type: functional, organism-based
# Mus musculus [6] = assay: Antiobesity activity in diet-induced obese C57Bl/6 mouse assessed as reduction in FFA level compound dosed po for 4 weeks with high-fat diet; assay type: functional, organism-based
# Mus musculus [7] = assay: Decrease in insulin resistance in diet-induced obese C57Bl/6 mouse assessed as induction of insulin secretion at 20 mg/kg/day, po for 4 weeks by insulin tolerance test; assay type: functional, organism-based
# Mus musculus [8] = assay: Antiobesity activity in diet-induced obese C57Bl/6 mouse assessed as alteration of adipose tissue morphology at 20 to 50 mg/kg/day, po for 4 weeks administered with high-fat diet by Oil Red O staining-based histological method; assay type: functional, organism-based
# Mus musculus [9] = assay: Decrease in insulin resistance in diet-induced obese C57Bl/6 mouse assessed as induction of insulin secretion at 50 mg/kg/day, po for 4 weeks by insulin tolerance test; assay type: functional, organism-based
# Mus musculus [10] = assay: Antiobesity activity in diet-induced obese C57Bl/6 mouse assessed as reduction in LDL level compound dosed po for 4 weeks with high-fat diet; assay type: functional, organism-based
# Mus musculus [11] = assay: Antiobesity activity in diet-induced obese C57Bl/6 mouse assessed as reduction in fat accumulation in liver at 20 to 50 mg/kg/day, po for 4 weeks administered with high-fat diet by Oil Red O staining-based histological method; assay type: functional, organism-based
# Mus musculus [12] = assay: Increase in glucose tolerance in diet-induced obese C57Bl/6 mouse at 20 mg/kg, po as single dose by oral glucose tolerance test; assay type: functional, organism-based; parameters: dose 20 mg/kg
# Mus musculus [13] = assay: Antiobesity activity in diet-induced obese C57Bl/6 mouse assessed as reduction in lipid droplets in liver at 50 mg/kg/day, po for 4 weeks administered with high-fat diet by Oil Red O staining-based histological method; assay type: functional, organism-based
# Mus musculus [14] = assay: Antiobesity activity in diet-induced obese C57Bl/6 mouse assessed as reduction in fat accumulation in liver at 50 mg/kg/day, po for 4 weeks administered with high-fat diet by Oil Red O staining-based histological method; assay type: functional, organism-based
# Mus musculus [15] = assay: Antiobesity activity in diet-induced obese C57Bl/6 mouse assessed as change in insulin level compound dosed po for 4 weeks with high-fat diet; assay type: functional, organism-based
# Mus musculus [16] = assay: Decrease in insulin resistance in diet-induced obese C57Bl/6 mouse assessed as induction of insulin secretion at 20 mg/kg, po as single dose by insulin tolerance test; assay type: functional, organism-based; parameters: dose 20 mg/kg
# Mus musculus [17] = assay: Antiobesity activity in diet-induced obese C57Bl/6 mouse assessed as reduction in size of fat cells at 20 mg/kg/day, po for 4 weeks administered with high-fat diet by Oil Red O staining-based histological method; assay type: functional, organism-based
# Mus musculus [18] = assay: Antiobesity activity in diet-induced obese C57Bl/6 mouse assessed as reduction in triglyceride level compound dosed po for 4 weeks with high-fat diet; assay type: functional, organism-based
# Mus musculus [19] = assay: Increase in glucose tolerance in po dosed diet-induced obese C57Bl/6 mouse by oral glucose tolerance test; assay type: functional, organism-based
# Mus musculus [20] = assay: Antiobesity activity in diet-induced obese C57Bl/6 mouse assessed as normal liver morphology and histology at 50 mg/kg/day, po for 4 weeks administered with high-fat diet by Oil Red O staining-based histological method; assay type: functional, organism-based
# Mus musculus [21] = assay: Antiobesity activity in diet-induced obese C57Bl/6 mouse assessed as reduction in fasting blood glucose compound dosed po for 4 weeks with high-fat diet; assay type: functional, organism-based
# Mus musculus [22] = assay: Antiobesity activity in diet-induced obese C57Bl/6 mouse assessed as reduction in fasting blood glucose at 50 mg/kg/day, po for 4 weeks administered with high-fat diet (reference value: 5.0 +/- 1.30 mM); assay type: functional
# Rattus norvegicus [23] = assay: Acute toxicity in Sprague-Dawley rat assessed as change in body weight at 2.5 g/kg, po as single dose measured after 7 days; assay type: organism-based; conditions: in vivo, 2500 mg/kg, 168 h
# Mus musculus [24] = assay: Antiobesity activity in diet-induced obese C57Bl/6 mouse assessed as increase in HDL level at 50 mg/kg/day, po for 4 weeks administered with high-fat diet (reference value: 0.60 +/- 0.17 mM); assay type: functional
# Mus musculus [25] = assay: Antiobesity activity in diet-induced obese C57Bl/6 mouse assessed as reduction in triglyceride level at 50 mg/kg/day, po for 4 weeks administered with high-fat diet (reference value: 0.93 +/- 0.09 mM); assay type: functional
# Rattus norvegicus [26] = assay: Acute toxicity in Sprague-Dawley rat assessed as mortality at 2.5 g/kg, po as single dose measured after 7 days; assay type: organism-based; conditions: in vivo, 2500 mg/kg, 168 h
# Mus musculus [27] = assay: Antiobesity activity in diet-induced obese C57Bl/6 mouse assessed as change in insulin level at 50 mg/kg/day, po for 4 weeks administered with high-fat diet (reference value: 11.85 +/- 2.6 mU); assay type: functional
# Mus musculus [28] = assay: Antiobesity activity in diet-induced obese C57Bl/6 mouse assessed as reduction in FFA level at 50 mg/kg/day, po for 4 weeks administered with high-fat diet (reference value: 19.55 +/- 1.57 ng/L); assay type: functional
# 3T3-L1 = assay: Inhibition of triglyceride accumulation in mouse 3T3L1 cells at 10 uM after 24 hrs; assay type: functional; conditions: 3T3-L1, 24 h
# Rattus norvegicus [29] = assay: Acute toxicity in Sprague-Dawley rat assessed as clinical signs at 2.5 g/kg, po as single dose measured after 7 days; assay type: organism-based; conditions: in vivo, 2500 mg/kg, 168 h
# Mus musculus [30] = assay: Toxicity in diet-induced obese C57Bl/6 mouse assessed as change in ALT level at 50 mg/kg/day, po for 4 weeks administered with high-fat diet (reference value: 33.00 +/- 18.23 U/L); assay type: organism-based; parameters: route oral; conditions: in vivo, 672 h
# Mus musculus [31] = assay: Antiobesity activity in diet-induced obese C57Bl/6 mouse assessed as reduction in body weight at 50 mg/kg/day, po for 4 weeks administered with high-fat diet; assay type: functional; parameters: scale not given: the % may be the effect or the level left
# Mus musculus [32] = assay: Toxicity in diet-induced obese C57Bl/6 mouse assessed as change in AST level at 50 mg/kg/day, po for 4 weeks administered with high-fat diet (reference value: 125.00 +/- 35.00 U/L); assay type: organism-based; parameters: route oral; conditions: in vivo, 672 h
# Mus musculus [33] = assay: Antiobesity activity in diet-induced obese C57Bl/6 mouse assessed as reduction in LDL level at 50 mg/kg/day, po for 4 weeks administered with high-fat diet (reference value: 0.14 +/- 0.07 mM); assay type: functional
# Mus musculus [34] = assay: Toxicity in diet-induced obese C57Bl/6 mouse assessed as change in food intake at 50 mg/kg/day, po for 4 weeks administered with high-fat diet; assay type: organism-based; parameters: route oral; conditions: in vivo, 672 h
# Mus musculus [35] = assay: Antiobesity activity in diet-induced obese C57Bl/6 mouse assessed as reduction in hepatic triglyceride level at 50 mg/kg/day, po for 4 weeks administered with high-fat diet by Oil Red O staining-based histological method; assay type: functional; parameters: scale not given: the % may be the effect or the level left
# Mus musculus [36] = assay: Antiobesity activity in diet-induced obese C57Bl/6 mouse assessed as reduction in HOMA-IR value at 50 mg/kg/day, po for 4 weeks administered with high-fat diet (reference value: 3.06 +/- 0.85 no_unit); assay type: functional
# Mus musculus [37] = assay: Antiobesity activity in diet-induced obese C57Bl/6 mouse assessed as loss of epididymal fat mass at 50 mg/kg/day, po for 4 weeks administered with high-fat diet; assay type: functional
# Mus musculus [38] = assay: Antiobesity activity in diet-induced obese C57Bl/6 mouse assessed as loss of liver weight at 50 mg/kg/day, po for 4 weeks administered with high-fat diet; assay type: functional
compound,measurement,setting,value
CCn1c(-c2ccc(OCCN(C)c3ccccn3)cc2)nc2c1c(=O)n(Cc1ccccc1C#N)c(=O)n2C,Activity,Mus musculus [1],Active
same,Activity,Mus musculus [2],Dose-dependent effect
same,Activity,Mus musculus [3],Dose-dependent effect
same,Activity,Mus musculus [4],Dose-dependent effect
same,Activity,Mus musculus [5],Active
same,Activity,Mus musculus [6],Dose-dependent effect
same,Activity,Mus musculus [7],Active
same,Activity,Mus musculus [8],Active
same,Activity,Mus musculus [9],Active
same,Activity,Mus musculus [10],Dose-dependent effect
same,Activity,Mus musculus [11],Active
same,Activity,Mus musculus [12],Active
same,Activity,Mus musculus [13],Active
same,Activity,Mus musculus [14],Active
same,Activity,Mus musculus [15],Dose-dependent effect
same,Activity,Mus musculus [16],Active
same,Activity,Mus musculus [17],Active
same,Activity,Mus musculus [18],Dose-dependent effect
same,Activity,Mus musculus [19],Dose-dependent effect
same,Activity,Mus musculus [20],Active
same,Activity,Mus musculus [21],Dose-dependent effect
CCCn1c(-c2ccc(OCCN(C)c3ccccn3)cc2)nc2c1c(=O)n(Cc1ccccc1C#N)c(=O)n2C,Activity,Mus musculus [22],7.25 mM
same,Activity,Rattus norvegicus [23],Non-toxic
same,Activity,Mus musculus [24],0.96 mM
same,Activity,Mus musculus [25],1.15 mM
same,Activity,Rattus norvegicus [26],Non-toxic
same,Activity,Mus musculus [27],12.04 mU
same,Activity,Mus musculus [28],24.43 ng/L
same,Activity,Mus musculus [5],inactive
same,inhibition at 10 µM,3T3-L1,51.1%
same,Activity,Rattus norvegicus [29],Non-toxic
same,Activity,Mus musculus [30],86 U/L
same,Activity,Mus musculus [31],7.64%
same,Activity,Mus musculus [32],150 U/L
same,Activity,Mus musculus [9],inactive
same,Activity,Mus musculus [33],0.16 mM
same,Activity,Mus musculus [34],Non-toxic
same,Activity,Mus musculus [35],5.15%
same,Activity,Mus musculus [36],3.99
same,Activity,Mus musculus [13],inactive
same,Activity,Mus musculus [14],Active
same,Activity,Mus musculus [37],4.76%
same,Activity,Mus musculus [38],12.8%
